These are literature values, as cited in article PMC4324444 (ACS Chemical Biology, 2014).

This series has as its target XIAP. As to conditions: read-out: binding affinity to XIAP (Ki).

`CN[C@@H](C)C(=O)N[C@H](C(=O)N1CC[C@H](C)[C@H]1C(=O)Nc1ccccc1-c1ncccn1)C1CCCCC1` [CS3]: the inhibitory constant (Ki) is greater than 30 µM.

In general, Ki refers to the dissociation constant of the complex between target and ligand, obtained from inhibition or displacement.
